Data taken from US20020168325A1, “NOS inhibitors for treatment of wrinkles” (priority 2001, published 2002).
“Also recorded” adds a separate entry of the source.

Experiments:
[1] = test system: ears of female Balb/C mice; assay: Ear swelling response (skin irritation from topical application); format: in vivo
Experimental: To examine the potential for irritation from topical application of a NOS inhibitor to the skin, measurements of ear swelling response were performed as follows: The thickness of both ears of each of three female Balb/C mice, 10 weeks of age, was measured with a thickness gage (Mitsutoyo Corp.). Ten microliters of 1% L-NAME (L-N^G-nitro-arginine methyl ester) in 70% ethanol in water was applied to each right ear, and 10 microliters of 70% ethanol in water was applied to each left ear as a control. Ear thickness was monitored over two consecutive days following administration of the solutions.

[2] = test system: back skin of mice (HR-1 hairless strain); assay: Wrinkle formation caused by UVB exposure, analysis of back skin replicas (Wrinkle Analyzer 3D Pro); format: in vivo
Excerpt: The effect of a compound on the formation or appearance of wrinkles can be evaluated qualitatively, e.g., by visual inspection, or quantitatively, e.g., by computer assisted measurements of wrinkle morphology. Preferably, wrinkle morphology is quantitatively analyzed. Examples of quantitative methods for measuring wrinkles include, but are not limited to, the optical cut technique employing a laser beam, as proposed by Hoshino (1992) Pixel 45:121, herein incorporated by reference; or methods which analyze three-dimensional skin replicas, e.g., the Shiseido Wrinkle Analyzer 3D Pro system (Takasu et al. (1996) J Soc Cosmet Chem Japan 29:394-405; Japanese Published Patent Application No. 07-113623, published May 2, 1995 (corresponds to U.S. patent application Ser. No. 08/364,346)). The SILFLO (Flexico Development Ltd.) system or a similar system can be used to take a replica of the skin. Irregularities on the surface of the skin replica, i.e., wrinkles, are analyzed, e.g., with the Shiseido Wrinkle Analyzer 3D Pro or a similar system, to provide three-dimensional shape data from the heights at points on a two-dimensional plane corresponding to the skin. According to the three-dimensional data, the length, width, depth, area, and volume of each wrinkle is calculated. According to the parameters for regular and fine wrinkles described herein, different classes of wrinkles, including the subclasses of regular and fine wrinkles, can thus be individually recognized and scored.
To examine the effect of L-NAME on wrinkle formation, wrinkle measurements experiments were performed on the back skin of mice (HR-1 hairless strain, female, 5 weeks of age, n=3) by taking and analyzing skin replicas.
Mice were exposed to UVB irradiation three times a week for ten weeks beginning with 0.3mW/cm^2. The total exposure was 4.662J/cm^2. 100 microliters of 1% L-NAME in 70% ethanol, or 70% ethanol as a control, was applied after each UVB irradiation. Three days after the final UVB irradiation, skin replicas of the dorsal area were taken by means of SILFLO (Flexico Development Ltd.). Replicas were evaluated by the Wrinkle Analyzer 3D Pro developed by Shiseido (essentially as described in Takasu et al. (1996) J Soc Cosmet Chem Japan 29:394-405). Wrinkdle volume and width of regular and fine wrinkles was calculated through three-dimensional data.

[3] = UVB three times a week for ten weeks, 100 microliters of 1% L-NAME in 70% ethanol after each irradiation, replicas three days after final UVB

COC(=O)[C@@H](N)CCCNC(=N)N[N+](=O)[O-] [L-NAME, L-N^G-nitro-arginine methyl ester]
Difference in ear thickness between control and treated ears ([1]; 1% L-NAME in 70% ethanol vs 70% ethanol control, over two days): no statistically significant difference in ear thickness | Skin inflammation / other signs of irritation (redness, flaking) ([1]; 1% L-NAME in 70% ethanol, topical on ear): did not cause skin inflammation; also recorded: no other signs of skin irritation or inflammation | Ear thickness DAY 0, AVE ± SD ([1]; Day 0, right ears, 10 microliters of 1% L-NAME in 70% ethanol topical, three female Balb/C mice): 26.33 ± 0.58 × 0.01 mm | Ear thickness DAY 1, AVE ± SD ([1]; Day 1 after application, right ears, 10 microliters of 1% L-NAME in 70% ethanol topical): 25.33 ± 0.58 × 0.01 mm | Ear thickness DAY 2, AVE ± SD ([1]; Day 2 after application, right ears, 10 microliters of 1% L-NAME in 70% ethanol topical): 26.33 ± 0.58 × 0.01 mm | Effect on fine wrinkle formation caused by UVB exposure ([2]; 1% L-NAME in 70% ethanol on back skin of mice, compared to control mice): prevented the formation of fine wrinkles; also recorded: reduction in fine wrinkles | Wrinkle volume, fine wrinkles [2, 3]: 175,295 pixels | Wrinkle volume, regular wrinkles [2, 3]: 896,863 pixels | Wrinkle volume, total (regular + fine) [2, 3]: 1,072,158 pixels
